Data on two compounds can be found in PMC4962012, “Pretrichodermamides D–F from a Marine Algicolous Fungus Penicillium sp. KMM 4672” (Marine Drugs, 2016).

SMILES strings stand for the structures.

Data set [1] can be described thus: MTT cytotoxicity assay, LNCaP cells. Type of data set: cell-based. The following applies: human, LNCaP prostate cancer cells. The protocol: (§1) The human prostate cancer cells lines 22Rv1, PC-3, and LNCaP were purchased from ATCC. Cell lines were cultured according to the manufacturers instructions in 10% FBS/RPMI media (Invitrogen) with (for LNCaP) or without (for 22Rv1 and PC-3) 1 mM sodium pyruvate (Invitrogen). Cells were continuously kept in culture for a maximum of 3 months and were routinely inspected microscopically for stable phenotype and regularly checked for contamination with mycoplasma. Cell line authentication was performed by DSMZ (Braunschweig, Germany) using highly polymorphic short tandem repeat loci.
(§2) The in vitro cytotoxicity of individual substances was evaluated using the MTT (3-(4,5-dimethylthiazol-2-yl)-2,5-diphenyltetrazolium bromide) assay, which was performed as previously described. Cytotoxicity against CD-I mouse splenocytes was determined according to Freshney. Docetaxel was used as a reference substance.

Data set [2] can be described thus: MTT cytotoxicity assay, PC-3 cells. The class given is cell-based. The following applies: human, PC-3 prostate cancer cells. The procedure: as §1, §2
The test system of data set [3] is human prostate cancer 22Rv1 cells. The data set can be described thus: Apoptosis induction analysis (flow cytometry, PI staining, sub-G1 peak). The class given is cell-based. The following applies: treatment with 1 µM for 48 h. The procedure:
as §1
The cell cycle distribution was analyzed by flow cytometry using PI staining as described before with slight modifications. In brief, cells were pre-incubated overnight in 6-well plates (2 × 10^5 cells/well in 2 mL/well). The medium was changed to fresh medium containing different concentrations of the substances. After 48 h of treatment, cells were harvested with a trypsin-EDTA solution, fixed with 70% EtOH, stained, and analyzed by FACS. The results were quantitatively analyzed using Cell Quest Pro software (Version 5.2.1., BD Bioscience, Bedford, MA, USA). Cells appeared at sub-G1 peak were assumed as apoptotic.
In general terms: Flow cytometry measures light scatter and fluorescence of single cells or particles in a stream.

Another data set concerns CD-I mouse erythrocytes. The data set can be described thus: Hemolytic activity. Type of data set: cell-based. The protocol: The hemolytic activity was evaluated using CD-I mouse erythrocytes as previously described.
Data set [4] has as its system a number of different cancer cells. More on the design: method as in PMID 26039736. The settings on record: up to 10 µM; cited from earlier work.
In a further data set the test system is CD-I mouse splenocytes. The data set can be described thus: Cytotoxicity against mouse splenocytes. Type of data set: cell-based. The following applies: non-malignant murine splenocytes. The protocol:
as §2

Data set [5] in a line: MTT cytotoxicity assay, 22Rv1 cells. The settings on record: human, 22Rv1 prostate cancer cells. Type of data set: cell-based. The procedure:
as §1, §2
A general note: Tetrazolium dyes change colour on reduction, which living cells bring about.

Take `COc1ccc(C2SSC34CC5(O)C(Cl)C=CC(O)C5ON3C(=O)C2N(C)C4=O)c(O)c1OC` (centres unmarked) [compound 5, N-methylpretrichodermamide B]: the IC50 – broadly, the point on the concentration scale where inhibition reaches its midpoint – in data set [1] came out at 1.76 µM; in data set [2], 5.11 µM; in data set [5], 0.51 µM. Further, in data set [3], the apoptosis is listed as 31.3% ± 8.2. Besides, in the data set on CD-I mouse erythrocytes (murine erythrocytes, up to 100 µM), the hemolytic activity result is “did not show hemolitic activity”. In the data set on CD-I mouse erythrocytes (non-malignant murine erythrocytes), the “ED50 (erythrocytes)” value is over 100 µM. For the same compound, the “cytotoxic effect against a number of different cancer cells” value in data set [4] is “did not show any cytotoxic effect”. In addition, the “ED50 (cytotoxicity for splenocytes)” value in the data set with CD-I mouse splenocytes stood at 62.1 µM.

Take `CC(=O)O[C@@]12CO[C@@H]1C[C@H](O)[C@@]1(C)C(=O)[C@H](O)C3=C(C)[C@@H](OC(=O)[C@H](O)[C@@H](NC(=O)OC(C)(C)C)c4ccccc4)C[C@@](O)([C@@H](OC(=O)c4ccccc4)[C@H]21)C3(C)C` [docetaxel, reference compound]: the IC50 was 0.004 µM in data set [1], 0.015 µM in data set [2] and 0.013 µM in data set [5].
